Experimental findings from patent US20240228555A9, “ANTIMICROBIAL PEPTIDOMIMETICS” (Basilea Pharmaceutica International AG, Allschwil, priority 2020, published 2024) are described below.

Series [1] concerns human red blood cells (hRBC). The format is cell-based. The settings on record: red cells of human, 1 h, 0.2 g/L. The gist of the method: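 Percent lysis was derived from supernatant absorbance at 540 nm relative to full lysis by 2.5% Triton X-100 (PBS defines 0%). Compounds, 200 μg/mL, were exposed for 1 h at 37° C to a 20% (v/v) suspension of washed human red cells.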
Series [2] concerns Klebsiella pneumoniae SSI3010. The settings on record: SSI3010. The gist of the method:
(§1)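 Standardized inocula (0.5 McFarland in saline, then diluted in MHII broth to approximately 5×10^5 CFU/mL) were exposed to two-fold dilution series of each peptide in the presence of polysorbate 80 (0.002% final).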

Series [3] deals with Escherichia coli MCR-1 Af 45. The settings on record: Mueller-Hinton broth II, no visible growth after 18-20 hours at 35° C. The gist of the method:
as §1

The test system of series [4] is Escherichia coli ATCC 25922. As to conditions: ATCC 25922. The gist of the method: as §1

The structures appear in SMILES notation. Where a SMILES comes first, the peptide text is derived from it.

In the case of `CC[C@H](C)[C@H](NC(=O)[C@@H]1C[C@@H](N)CN1C(=O)[C@@H](N)C(C)C)C(=O)N[C@H](C(=O)N[C@@H](Cc1ccc(O)cc1)C(=O)N[C@@H]1C(=O)N[C@@H](CC(N)=O)C(=O)N[C@@H](CCCNC(=N)N)C(=O)N[C@@H](CCN)C(=O)N[C@@H]([C@@H](C)O)C(=O)N[C@H](CCN)C(=O)N[C@@H](CCCNC(N)=O)C(=O)N[C@H](C(=O)N[C@@H](CCN)C(=O)N[C@H](C(=O)N[C@@H](Cc2ccc(O)cc2)C(=O)O)[C@@H](C)O)CSSC1(C)C)[C@@H](C)O` [Example 116, Val-Pro((4R)NH2)-Ile-Thr-Tyr-Pen-Asn-Arg-Dab-Thr-^DDab-Cit-Cys-Dab-Thr-Tyr] (HELM PEPTIDE1{V.[N[C@@H]1C[C@@H](C(=O)[*:2])N([*:1])C1].I.T.Y.[Pen].N.R.[Dab].T.[NCC[C@@H](N[*:1])C(=O)[*:2]].[Cit].C.[Dab].T.Y}$PEPTIDE1,PEPTIDE1,6:R3-13:R3$$$V2.0), the “Hemolysis at 0.2 g/L” value in series [1] is reported as less than 1%. The “Klebsiella pneumoniae SSI3010 MIC” value in series [2] was 0.5 µg/mL. Also, the “Escherichia coli MCR-1 Af 45 MIC” value in series [3] is 0.25 µg/mL. In series [4], the “Escherichia coli ATCC 25922 MIC” value was determined as 0.25 µg/mL.
In the case of `CC[C@H](C)[C@@H]1NC(=O)[C@@H](CCN)NC(=O)[C@H]([C@@H](C)O)NC(=O)[C@H](CCN)NC(=O)[C@H](CCCNC(=N)N)NC(=O)[C@H](CC(N)=O)NC(=O)[C@@H](NC(=O)[C@H](Cc2ccc(O)cc2)NC(=O)[C@@H](NC(=O)[C@@H](NC(=O)[C@@H]2C[C@@H](N)CN2C(=O)[C@@H](N)C(C)C)[C@@H](C)CC)[C@@H](C)O)C(C)(C)SSC[C@@H](C(=O)N[C@@H](CCN)C(=O)N[C@H](C(=O)N[C@@H](Cc2ccc(O)cc2)C(=O)O)[C@@H](C)O)NC1=O` [Example 117, Val-Pro((4R)NH2)-Ile-Thr-Tyr-Pen-Asn-Arg-Dab-Thr-^DDab-Ile-Cys-Dab-Thr-Tyr] (HELM PEPTIDE1{V.[N[C@@H]1C[C@@H](C(=O)[*:2])N([*:1])C1].I.T.Y.[Pen].N.R.[Dab].T.[NCC[C@@H](N[*:1])C(=O)[*:2]].I.C.[Dab].T.Y}$PEPTIDE1,PEPTIDE1,6:R3-13:R3$$$V2.0), in series [1], the “Hemolysis at 0.2 g/L” value was less than 1%. The “Klebsiella pneumoniae SSI3010 MIC” value in series [2] turned out to be 0.25 µg/mL. The “Escherichia coli MCR-1 Af 45 MIC” value in series [3] was 0.125 µg/mL. Also, the “Escherichia coli ATCC 25922 MIC” value in series [4] came out at 0.125 µg/mL.
Regarding `CC[C@H](C)[C@H](NC(=O)[C@@H](NC(=O)[C@@H]1C[C@@H](O)CN1C(=O)[C@@H](N)C(C)C)[C@@H](C)CC)C(=O)N[C@@H](Cc1ccc(O)cc1)C(=O)N[C@@H]1C(=O)N[C@@H](CC(N)=O)C(=O)N[C@@H](CCCNC(=N)N)C(=O)N[C@@H](CCN)C(=O)N[C@@H](CO)C(=O)N[C@H](CCN)C(=O)N[C@@H]([C@@H](C)CC)C(=O)N[C@H](C(=O)N[C@@H](CCN)C(=O)N[C@@H](CCCNC(=N)N)C(=O)N[C@@H](Cc2ccc(O)cc2)C(=O)O)CSSC1(C)C` [Example 118, Val-Hyp-Ile-Ile-Tyr-Pen-Asn-Arg-Dab-Ser-^DDab-Ile-Cys-Dab-Arg-Tyr] (HELM PEPTIDE1{V.[Hyp].I.I.Y.[Pen].N.R.[Dab].S.[NCC[C@@H](N[*:1])C(=O)[*:2]].I.C.[Dab].R.Y}$PEPTIDE1,PEPTIDE1,6:R3-13:R3$$$V2.0), the “Hemolysis at 0.2 g/L” value in series [1] is reported as less than 1%. In addition, the “Klebsiella pneumoniae SSI3010 MIC” value in series [2] came to 0.25 µg/mL. For the same molecule, in series [3], the “Escherichia coli MCR-1 Af 45 MIC” value was found to be 0.25 µg/mL. Moreover, in series [4], the “Escherichia coli ATCC 25922 MIC” value is 0.25 µg/mL.
Regarding `CC[C@H](C)[C@H](NC(=O)[C@@H]1C[C@@H](N)CN1C(=O)[C@@H](N)C(C)C)C(=O)N[C@H](C(=O)N[C@@H](Cc1ccc(O)cc1)C(=O)N[C@@H]1C(=O)N[C@@H](CC(N)=O)C(=O)N[C@@H](CCCNC(=N)N)C(=O)N[C@@H](CCN)C(=O)N[C@@H]([C@@H](C)O)C(=O)N[C@H](CCN)C(=O)N[C@@H](CCCCN)C(=O)N[C@H](C(=O)N[C@@H](CO)C(=O)N[C@H](C(=O)N[C@@H](Cc2ccc(O)cc2)C(=O)O)[C@@H](C)O)CSSC1(C)C)[C@@H](C)O` [Example 119, Val-Pro((4R)NH2)-Ile-Thr-Tyr-Pen-Asn-Arg-Dab-Thr-^DDab-Lys-Cys-Ser-Thr-Tyr] (HELM PEPTIDE1{V.[N[C@@H]1C[C@@H](C(=O)[*:2])N([*:1])C1].I.T.Y.[Pen].N.R.[Dab].T.[NCC[C@@H](N[*:1])C(=O)[*:2]].K.C.S.T.Y}$PEPTIDE1,PEPTIDE1,6:R3-13:R3$$$V2.0), in series [1], the “Hemolysis at 0.2 g/L” value is recorded as less than 1%. In series [2], the “Klebsiella pneumoniae SSI3010 MIC” value was 0.25 µg/mL. Further, the “Escherichia coli MCR-1 Af 45 MIC” value in series [3] was found to be 0.25 µg/mL. Besides, the “Escherichia coli ATCC 25922 MIC” value in series [4] was 0.25 µg/mL.
Consider `CC[C@H](C)[C@H](NC(=O)[C@@H]1C[C@@H](N)CN1C(=O)[C@@H](N)C(C)C)C(=O)N[C@H](C(=O)N[C@@H](Cc1ccc(O)cc1)C(=O)N[C@@H]1C(=O)N[C@@H](CC(N)=O)C(=O)N[C@@H](CCCNC(=N)N)C(=O)N[C@@H](CCN)C(=O)N[C@@H]([C@@H](C)O)C(=O)N[C@H](CCN)C(=O)N[C@@H](CCCCN)C(=O)N[C@H](C(=O)N[C@@H](CCN)C(=O)N[C@H](C(=O)N[C@@H](Cc2ccc(O)cc2)C(=O)O)[C@@H](C)O)CSSC1(C)C)[C@@H](C)O` [Example 120, Val-Pro((4R)NH2)-Ile-Thr-Tyr-Pen-Asn-Arg-Dab-Thr-^DDab-Lys-Cys-Dab-Thr-Tyr] (HELM PEPTIDE1{V.[N[C@@H]1C[C@@H](C(=O)[*:2])N([*:1])C1].I.T.Y.[Pen].N.R.[Dab].T.[NCC[C@@H](N[*:1])C(=O)[*:2]].K.C.[Dab].T.Y}$PEPTIDE1,PEPTIDE1,6:R3-13:R3$$$V2.0), for which the “Hemolysis at 0.2 g/L” value in series [1] is reported as less than 1%. In addition, the “Klebsiella pneumoniae SSI3010 MIC” value in series [2] was found to be 0.5 µg/mL. The “Escherichia coli MCR-1 Af 45 MIC” value in series [3] was determined as 0.125 µg/mL. Also, the “Escherichia coli ATCC 25922 MIC” value in series [4] was 0.25 µg/mL.
On to `CC[C@H](C)[C@H](NC(=O)[C@@H](NC(=O)[C@@H]1C[C@@H](O)CN1C(=O)[C@@H](N)C(C)C)[C@@H](C)CC)C(=O)N[C@@H](Cc1ccc(O)cc1)C(=O)N[C@@H]1C(=O)N[C@@H](CC(N)=O)C(=O)N[C@@H](CCCNC(=N)N)C(=O)N[C@@H](CCCN)C(=O)N[C@@H]([C@@H](C)O)C(=O)N[C@H](CCN)C(=O)N[C@@H]([C@@H](C)CC)C(=O)N[C@H](C(=O)N[C@@H](CCN)C(=O)N[C@@H](CCCNC(=N)N)C(=O)N[C@@H](Cc2ccc(O)cc2)C(=O)O)CSSC1(C)C` [Example 121, Val-Hyp-Ile-Ile-Tyr-Pen-Asn-Arg-Orn-Thr-^DDab-Ile-Cys-Dab-Arg-Tyr] (HELM PEPTIDE1{V.[Hyp].I.I.Y.[Pen].N.R.[Orn].T.[NCC[C@@H](N[*:1])C(=O)[*:2]].I.C.[Dab].R.Y}$PEPTIDE1,PEPTIDE1,6:R3-13:R3$$$V2.0), for which the “Hemolysis at 0.2 g/L” value in series [1] is listed as less than 1%. Moreover, the “Klebsiella pneumoniae SSI3010 MIC” value in series [2] is 0.5 µg/mL. Also, the “Escherichia coli MCR-1 Af 45 MIC” value in series [3] was 0.25 µg/mL. The “Escherichia coli ATCC 25922 MIC” value in series [4] was 0.25 µg/mL.
